This data set concerns Mortierella elongata AG77. The data set is described as follows: Carbon source utilisation in Biolog 96-well plates, formazan formation after tetrazolium addition. Particulars: for Metabolized: Metabolized = more formazan formation than a control containing no carbon source, observed visually at 2 h, 24 h, 148 h; for Carbon sources that Mortierella elongata AG77 can metabolize: summary of Table 3. The data set is classed as cell-based. The procedure:
Two 300 mL volumes of growth medium comprising 1 g/L KH2PO4, 1 g/L MgSO4 7H2O, 0.1 g/L CaCl2, 0.02 g/L FeNaEDTA, 0.1 g/L NaCl, and either 1 g/L NH4NO3 or 20 g/L sucrose were prepared. Acidity was adjusted to 5.5 using NaOH and volumes of growth medium were autoclaved 30 min at 121° C. to sterilize. Aliquots of 200 μL of carbon-free medium or nitrogen-free medium were pipetted into each well of a set of 96-well plates previously prepared with lyophilized putative carbon or nitrogen sources (Biolog Inc., Hayward, Calif.). Inocula were prepared by perforating a culture of Mortierella elongata AG77 grown on 20 g/L potato dextrose agar with a 3 mm diameter cork borer and separating the surface mycelial mat from the solid growth medium using tweezers. Each well was inoculated with one inoculum. Cultures were incubated at 21° C. for 24 hours to allow metabolic changes to stabilize, and then 100 μL of 3 g/L tetrazolium chloride in water was added to each well. Formazan formation was observed visually at 2 h, 24 h, and 148 h.
Conclusions were based on rate and intensity of formazan formation using the 3-4,5-dimethylthiazol-2-yl)-2,5-diphenyltetrazolium bromide (MTT) assay. “Metabolized” indicates more formazan formation than a control containing no carbon source, and “Toxic” indicates less formazan formation than a control containing no carbon source. “Metabolized” and “Toxic” assignments are mutually exclusive. In this example, a compound may be “Metabolized” or “Toxic,” but not both.

Setting [1] is: compound as carbon source, Toxic = less formazan formation than a control containing no carbon source.

Like-named read-outs stand apart in the source and are kept apart here.

As to `OC[C@H]1O[C@@H](O[C@@H]2[C@@H](CO)OC(O)(CO)[C@H]2O)[C@H](O)[C@@H](O)[C@H]1O` (mixture of isomers) [Lactulose], the Toxic entry is “no”. Further, the Metabolized entry (compound as carbon source) is reported as “no”.
As for `C[N+](C)(C)CC(O)CC(=O)[O-]` (racemic) [D,L-Carnitine], the “Carbon sources that Mortierella elongata AG77 can metabolize” value is on record as “can metabolize”. Further, the Metabolized entry (compound as carbon source) is “yes”. Besides, the Toxic entry under setting [1] is reported as “no”.
As to `O=C(O)CC(O)C(=O)O` (racemic) [D,L-Malic Acid], the Metabolized result (compound as carbon source) is “no”. Also, under setting [1], the Toxic result was “no”.
Regarding `NCC(O)c1ccc(O)cc1` (racemic) [D,L-Octopamine], the Metabolized result (compound as carbon source) was “no”. Also, the Toxic result under setting [1] is listed as “no”.
For the molecule `O=P(O)(O)OCC(O)CO` (racemic) [D,L-α-Glycerol- Phosphate], the Metabolized entry (compound as carbon source) is “no”. The Toxic result under setting [1] was “no”.
Turning to `CC(O)CO` (stereo not shown) [1,2-Propanediol], the “Carbon sources that Mortierella elongata AG77 can metabolize” value is given as “can metabolize”. For the same molecule, where the note is “compound as carbon source”, the Metabolized result is reported as “yes”. Also, the Toxic entry under setting [1] is “no”.
`CC(O)C(C)O` (stereo not shown) [2,3-Butanediol]: the Toxic result is “no”. Besides, for the setting “compound as carbon source”, the Metabolized entry is on record as “no”.
On to `CC(=O)C(C)=O` [2,3-Butanedione], for which, for the setting “compound as carbon source”, the Metabolized entry was “no”. Moreover, the Toxic result under setting [1] is “no”.
As for `Nc1ncnc2c1ncn2C1CC(O)C(CO)O1` (stereo not shown) [2-Deoxy Adenosine], under “compound as carbon source”, the Metabolized result is “no”. Moreover, the Toxic entry under setting [1] is “no”.
Turning to `O=CC[C@H](O)[C@H](O)CO` [2-Deoxy-D-Ribose], the Toxic entry was “no”. Further, where the note is “compound as carbon source”, the Metabolized result is given as “no”.
With `O=C(O)c1ccccc1O` [2-Hydroxy Benzoic Acid], under “compound as carbon source”, the Metabolized result is listed as “no”.
Regarding `O=C[C@@H](O)[C@H](O[C@@H]1O[C@H](CO)[C@H](O)[C@H](O)[C@H]1O)[C@H](O)CO` [3-0-β-D-Galacto-pyranosyl-D-Arabinose], the Metabolized entry (compound as carbon source) was “no”. Besides, the Toxic result under setting [1] is reported as “no”.
On to `CC(=O)C(C)O` (stereo not shown) [3-Hydroxy 2-Butanone], for which the Metabolized entry (compound as carbon source) is recorded as “no”. In addition, under setting [1], the Toxic result is on record as “no”.
On to `O=C(O)c1ccc(O)cc1` [4-Hydroxy Benzoic Acid], for which the Toxic result is listed as “no”. Further, under “compound as carbon source”, the Metabolized result was “no”.
In the case of `O=C(CO)[C@@H](O)[C@H](O)[C@@H](O)C(=O)O` [5-Keto-D-Gluconic Acid], where the note is “compound as carbon source”, the Metabolized result is given as “no”. Also, the Toxic entry under setting [1] was “no”.
Regarding `CC(=O)O` [Acetic Acid], the Metabolized result (compound as carbon source) was “no”.
As for `CC(=O)CC(=O)O` [Acetoacetic Acid], the Toxic result was “no” and the “Carbon sources that Mortierella elongata AG77 can metabolize” value is reported as “can metabolize”. In addition, the Metabolized entry (compound as carbon source) is “yes”.
`OC[C@@H](O)[C@@H](O)[C@@H](O)CO` [Adonitol]: the Toxic entry is given as “no”. Further, the Metabolized entry (compound as carbon source) is given as “no”.
Consider `N#C[C@H](O[C@@H]1O[C@H](CO[C@@H]2O[C@H](CO)[C@@H](O)[C@H](O)[C@H]2O)[C@@H](O)[C@H](O)[C@H]1O)c1ccccc1` [Amygdalin], for which, for the setting “compound as carbon source”, the Metabolized entry is on record as “no”. The Toxic result under setting [1] is “no”.
As for `OC[C@H]1O[C@@H](Oc2ccc(O)cc2)[C@H](O)[C@@H](O)[C@@H]1O` [Arbutin], the Metabolized result (compound as carbon source) was “no”. Moreover, under setting [1], the Toxic result is listed as “no”.
With `O=C(O)CC(Br)C(=O)O` (stereo not shown) [Bromo Succinic Acid], the Metabolized result (compound as carbon source) is “no”. Further, the Toxic result under setting [1] is “no”.
Consider `CCCC(=O)O` [Butyric Acid], for which the Toxic entry is given as “no”. Besides, the Metabolized entry (compound as carbon source) is on record as “no”.
Consider `CCCCCCCCCC(=O)O` [Capric Acid], for which the Toxic result is recorded as “no”. For the same molecule, the Metabolized result (compound as carbon source) is “no”.
For the molecule `CCCCCC(=O)O` [Caproic Acid], the Metabolized entry (compound as carbon source) is reported as “no”. Further, the Toxic result under setting [1] is recorded as “no”.
`C/C(=C/C(=O)O)C(=O)O` [Citraconic Acid]: the Toxic result was “no”. For the same molecule, for the setting “compound as carbon source”, the Metabolized entry is given as “no”.
For the molecule `CC(O)(CC(=O)O)C(=O)O` (stereo not shown) [Citramalic Acid], the Toxic entry was “no”. Further, the Metabolized result (compound as carbon source) was “no”.
As for `O=C(O)CC(O)(CC(=O)O)C(=O)O` [Citric Acid], the “Carbon sources that Mortierella elongata AG77 can metabolize” value is listed as “can metabolize”. Moreover, the Metabolized result (compound as carbon source) was “yes”.
Turning to `O=C[C@@H](O)[C@H](O)[C@H](O)CO` [D-Arabinose], the Toxic result is listed as “no”. Further, the Metabolized result (compound as carbon source) is “no”.
Take `OC[C@@H](O)C(O)[C@H](O)CO` [D-Arabitol]: the Metabolized entry (compound as carbon source) was “no”. For the same molecule, under setting [1], the Toxic entry is “no”.
Regarding `OC[C@H]1O[C@@H](O[C@H]2[C@H](O)[C@@H](O)[C@H](O)O[C@@H]2CO)[C@H](O)[C@@H](O)[C@@H]1O` [D-Cellobiose], where the note is “compound as carbon source”, the Metabolized result is reported as “no”.
As to `O=C(CO)[C@@H](O)[C@H](O)[C@H](O)COP(=O)(O)O` [D-Fructose-6-Phosphate], the “Carbon sources that Mortierella elongata AG77 can metabolize” value was “can metabolize”. For the same molecule, for the setting “compound as carbon source”, the Metabolized entry was “yes”. Moreover, the Toxic result under setting [1] is on record as “no”.
With `O=C(CO)[C@@H](O)[C@H](O)[C@H](O)CO` [D-Fructose], the Toxic entry is “no”. The Metabolized entry (compound as carbon source) is “no”.
On to `C[C@@H](O)[C@H](O)[C@H](O)[C@@H](O)C=O` [D-Fucose], for which the “Carbon sources that Mortierella elongata AG77 can metabolize” value is given as “can metabolize”. Also, where the note is “compound as carbon source”, the Metabolized entry is reported as “yes”. In addition, the Toxic entry under setting [1] was “no”.
Consider `O=C1O[C@@H]([C@H](O)CO)[C@H](O)[C@H]1O` [D-Galactonic Acid-γ-Lactone], for which the “Carbon sources that Mortierella elongata AG77 can metabolize” value is reported as “can metabolize”. Besides, the Metabolized entry (compound as carbon source) is “yes”. For the same molecule, under setting [1], the Toxic result is “no”.
With `O=C[C@H](O)[C@@H](O)[C@@H](O)[C@H](O)CO` [D-Galactose], the Toxic result is recorded as “no”. For the setting “compound as carbon source”, the Metabolized result was “no”.
For the molecule `O=C[C@H](O)[C@@H](O)[C@@H](O)[C@H](O)C(=O)O` [D-Galacturonic Acid], the Toxic entry is reported as “no”. For the same molecule, under “compound as carbon source”, the Metabolized result is reported as “no”.
On to `O=C(O)[C@H](O)[C@@H](O)[C@H](O)[C@H](O)CO` [D-Gluconic Acid], for which the Metabolized result (compound as carbon source) is “no”. Further, under setting [1], the Toxic result is “no”.
As for `N[C@@H](C(=O)O)[C@@H](O)[C@H](O)[C@H](O)CO` [D-Glucosaminic Acid], the “Carbon sources that Mortierella elongata AG77 can metabolize” value is “can metabolize”. Also, the Metabolized result (compound as carbon source) is “yes”. Further, the Toxic result under setting [1] is reported as “no”.
On to `O=P(O)(O)O[C@H]1O[C@H](CO)[C@@H](O)[C@H](O)[C@H]1O` [D-Glucose-1-Phosphate], for which the “Carbon sources that Mortierella elongata AG77 can metabolize” value is “can metabolize”. The Metabolized result (compound as carbon source) is “yes”.
Regarding `O=C[C@H](O)[C@@H](O)[C@H](O)[C@H](O)COP(=O)(O)O` [D-Glucose-6-Phosphate], the Toxic entry was “no” and the “Carbon sources that Mortierella elongata AG77 can metabolize” value is “can metabolize”. The Metabolized result (compound as carbon source) was “yes”.
For `O=C[C@H](O)[C@@H](O)[C@H](O)[C@H](O)C(=O)O` [D-Glucuronic Acid], the Toxic result is reported as “no” and the “Carbon sources that Mortierella elongata AG77 can metabolize” value was “can metabolize”. Moreover, the Metabolized result (compound as carbon source) is “yes”.
`COC(=O)[C@@H](C)O` [D-Lactic Acid Methyl Ester]: the “Carbon sources that Mortierella elongata AG77 can metabolize” value was “can metabolize”. The Metabolized result (compound as carbon source) is “yes”. Moreover, the Toxic result under setting [1] is “no”.

The values above are taken from patent US20200325505A1, “FILAMENTOUS FUNGI CAPABLE OF PRODUCING VERY LONG CHAIN FATTY ACIDS” (UT-Battelle, LLC, priority 2019, published 2020).
